For one experiment, the system named is blood-flow in liver. The experiment can be described thus: Liver blood-flow by laser Doppler flow method in anesthetized pigs during and after carbon dioxide insufflation (Example I). Type of experiment: in vivo. Particulars: adult pigs. Here is the method: Ten adult pigs were anesthetized at time zero using halothane anesthetic. A small cut was made in the abdomen to allow access inside the peritoneum. In the case of one group of five pigs, denoted group A, an insufflating needle was inserted, and starting at time 1 hour and 48 minutes, an insufflating gas consisting of carbon dioxide was delivered into the abdominal cavity to standard operating pressure (of 15 mm Hg) and the insufflating gas was maintained in the abdominal cavity for 1 hour whereupon the insufflating gas was removed by suction. In the case of another group of five pigs, denoted group B, an insufflating needle was inserted, and starting at time 1 hour and 35 minutes, an insufflating gas consisting of carbon dioxide and 100 ppm ethyl nitrite was delivered to the abdominal cavity to standard operating pressure and the insufflating gas was maintained in the abdominal cavity for about 1⅕ hour whereupon the insufflating gas was removed by suction. In both cases, blood-flow in liver was monitored by a laser Doppler flow method (a standard method where […] are projected at flowing blood and bounce back) whereby blood-flow is determined starting at time 5 minutes after time zero in the case of group A, and starting at about time 20 minutes after time zero in the case of group B and continuing until 2 hours after insufflating gas was removed. In FIGS. 1 and 2, the Doppler Flow Units are arbitrary units. In FIG. 3, the term “Relative Flow” means relative blood-flow in liver compared to baseline. […] FIG. 1 illustrates that carbon dioxide pneumoperitoneum produces a decrease in blood-flow to the liver, which was sustained even after the procedure was completed.

The next experiment relates to fetal PO2. The experiment can be described thus: Fetal PO2 during laparoscopic evaluation of a pregnant female (Example II). Type of experiment: in vivo, human. Particulars: 32 weeks pregnant female, 100 ppm added to carbon dioxide insufflating gas; fetal PO2 before addition 7 mmHg, electrode on the head. The procedure: A person, 32 weeks pregnant, undergoes laparoscopic evaluation for right lower quadrant pain. Thirty minutes into the procedure, fetal PO2, measured by an electrode placed on the head, is 7 mmHg. 100 ppm ethyl nitrite is added to the carbon dioxide insufflating gas, and the fetal PO2 increases to 25 mm Hg.

Experiment [1] relates to abdominal pain suggestive of intestinal ischemia. The experiment is described as follows: Laparoscopic cholecystectomy, abdominal pain suggestive of intestinal ischemia (Example III). In kind it is in vivo, human. The following applies: person, 100 ppm added to the insufflating gas one hour into the procedure. From the text: A person undergoes laparoscopic cholecystectomy.

A further experiment concerns renal perfusion. The experiment is described as follows: Laparoscopy in a person with renal artery stenosis, renal perfusion (Example IV). Particulars: 100 ppm added to insufflating gas. In kind it is in vivo, human. From the text: A person with renal artery stenosis undergoes laparoscopy appendectomy and diagnostic evaluation of a renal mass.
Experiment [2] has as its system blood pressure, pulmonary and renal functions. The experiment can be described thus: Laparoscopic appendectomy, agent nebulized into the abdominal cavity (Example V). In kind it is in vivo, human. The following applies: person, 3 cc of 100 micromolar nebulized into the abdominal cavity. The source says: A person undergoes laparoscopic appendectomy. Because of concerns of impaired renal function, pulmonary function and hypertension, nitroglycerin (3 cc of 100 micromolar) is nebulized into the abdominal cavity. Blood pressure increases are prevented and pulmonary and renal functions are kept stable.

Consider `CCON=O` [ethyl nitrite], for which the “more blood-flow in liver than with carbon dioxide only, 2 hours post-insufflation (FIG. 3)” value in the experiment with blood-flow in liver (100 ppm ethyl nitrite in carbon dioxide, 2 hours after insufflating gas is removed) is on record as “about 40%”. Besides, the “more blood-flow in liver than with carbon dioxide only, during insufflation (FIG. 3)” value with blood-flow in liver (100 ppm ethyl nitrite in carbon dioxide, average values while insufflating gas is present) is on record as “about 70%”. For the same compound, the “effect on carbon dioxide induced decline in liver perfusion (FIG. 2)” value with blood-flow in liver (group B, carbon dioxide with 100 ppm ethyl nitrite, 15 mm Hg, laser Doppler flow) is “protects against carbon dioxide induced decline in liver perfusion”. Further, the “fetal PO2 after addition of agent” value in the experiment with fetal PO2 was found to be 25 mm Hg. Moreover, the abdominal pain entry in experiment [1] is reported as “resolution of abdominal pain”. Further, the “decrease in blood-flow (renal perfusion)” value in the experiment on renal perfusion is recorded as “protects against decrease in blood-flow”.

Turning to `O=[N+]([O-])OCC(CO[N+](=O)[O-])O[N+](=O)[O-]` [nitroglycerin], in experiment [2], the blood pressure increases entry is “prevented”, the pulmonary function entry is recorded as “kept stable” and the renal function result is recorded as “kept stable”.

The record behind these values is patent US20100087547A1, “Use of a Blood-Flow Decrease Preventing Agent in Conjunction With Insufflating Gas” (priority 2001, published 2010).
